# Counter-ions that a name gives are not always drawn.
# Tested on: E. coli clinical isolates
# Test: screen of strains in broth medium containing FAC
# Assay type: cell-based
# Set-up: key to colour: Red, Green, Black or Purple mean strong colour; Red, Green, Black or Purple mean strong colour; Red, Green, Black or Purple mean strong colour; Red, Green, Black or Purple mean strong colour; +/− means less colour than strong; Tr means a trace of colour, less than +/−; — means no colour
# Settings: for colour: 37° C. 18 hours
# Excerpt: In order to obtain a fuller picture of the sensitivity of the substrates, they were screened with 100 different clinical isolates of E. coli in a liquid medium containing FAC. The isolates were chosen at random from the Microbiology Department, Freeman Hospital, Newcastle Upon Tyne, UK. The effectiveness of the new substrates was compared with three other media which all contained indoxyl-β-D-glucuronides. One was a commercial medium, CPS ID 3 (bioMérieux SA, Lyon, France). […] This medium was employed as a control. Among the β-D-glucuronidase producing strains of E. coli there is a large variation in the quantity of the enzyme produced and it is almost certain that the CPS ID 3 medium has been rigorously optimised to allow good growth of all the target organisms and maximum expression of the target enzymes. Therefore, two indoxyl glucuronides, X-β-D-glucuronide CHA salt and Rose-β-D-glucuronide CHA salt were also tested in a simple agar medium to allow a direct comparison of the sensitivity of these Indoxyl glucuronides when used in a medium that has not been optimised for the growth of the target organism. The comparison of the results for Rose-β-D-glucuronide and the CPS ID 3 medium was of particular significance as the commercial medium also uses Rose-β-D-glucuronide for the detection of E. coli. For consistency, the four glucuronides were all chosen as their CHA salts. As already stated, it is not anticipated that the salt form is critical to their performance. Currently. X-β-D-glucuronide is often used as either the CHA salt or the sodium salt. Brenner and colleagues [K. P. Brenner et al, Appl. Environ. Microbiol., 59, 3534-3544, (1993)] found no difference in the performance of the CHA and sodium salt forms with their application using indoxyl-β-D-glucuronide, neither in respect of colour development nor in the recovery of E. coli.
# The two indoxyl glucuronides used produce insoluble endpoints following hydrolysis, as does the CPS ID 3 medium. It was therefore necessary to test these two substrates on agar plates. In contrast, catechol-β-D-glucuronide (1) and DHN-β-D-glucuronide (2b) give much more soluble endpoints best suited to liquid media and were therefore tested in a broth medium. Each broth was prepared using proteose peptone (Oxoid, Basingstoke, UK) (2 g), NaCl (1 g) and FAC (100 mg) in DI water (180 mL). This mixture was autoclaved and cooled to room temperature before being dispensed into bijoux (100×1.8 mL). Catechol β-D-glucuronide CHA salt (1) or DHN-β-D-glucuronide CHA salt (2b) (60 mg) were each dissolved in water (20 mL) and filtered to sterilize before being aseptically dispensed into successive bijoux (0.2 mL) containing the broth solution. The broth/substrate solutions were then inoculated with bacterial suspensions made up to 0.5 McFarland standard (2 μL per bijoux). X-β-D-glucuronide CHA salt (Glycosynth Ltd, Warrington, UK) (10 mg) was dissolved in NMP (200 μL). Rose-β-D-glucuronide CHA salt (Glycosynth Ltd, Warrington, UK) (20 mg) was dissolved in NMP (200 μL). These solutions were then added to Columbia agar (Oxoid, Basingstoke, UK) (100 mL) and inoculated with bacterial suspensions made up to 0.5 McFarland standard (1 μL). The plates and broths were incubated at 37° C. for 18 hours in air.
# [1] = 100 E. coli strains after 18 h incubation, broth
smiles,measurement,setting,value
"O=C(O)C1OC(Oc2cc3ccccc3cc2O)C(O)C(O)C1O [Compound 2b, DHN-β-D-Glucuronide CHA Salt]",% Sensitivity,[1],82%
same,Negative strains,[1],18
same,Positive strains,[1],82
same,colour,"E. coli 260262P, broth",Purple
same,colour,"E. coli 260280Z, broth",Purple
same,colour,"E. coli 260310H, broth",Purple
same,colour,"E. coli 260313A, broth",—
same,colour,"E. coli 260316T, broth",—
same,colour,"E. coli 260327V, broth",Purple
same,colour,"E. coli 260330Y, broth",Purple
same,colour,"E. coli 260333P, broth",—
same,colour,"E. coli 260345F, broth",Purple
same,colour,"E. coli 260348K, broth",Purple
same,colour,"E. coli 260354W, broth",Purple
same,colour,"E. coli 260364H, broth",—
same,colour,"E. coli 260370C, broth",Purple
same,colour,"E. coli 260375E, broth",Purple
same,colour,"E. coli 260390B, broth",—
same,colour,"E. coli 260396Z, broth",Purple
same,colour,"E. coli 260398Q, broth",Purple
same,colour,"E. coli 260400N, broth",—
same,colour,"E. coli 260401Q, broth",Purple
same,colour,"E. coli 260402H, broth",Purple
same,colour,"E. coli 260404W, broth",Purple
same,colour,"E. coli 260405P, broth",Purple
same,colour,"E. coli 260406A, broth",—
same,colour,"E. coli 260406Y, broth",Purple
same,colour,"E. coli 260407F, broth",Purple
same,colour,"E. coli 260408C, broth",Purple
same,colour,"E. coli 260411Z, broth",Purple
same,colour,"E. coli 260412Q, broth",Purple
same,colour,"E. coli 260414H, broth",Purple
same,colour,"E. coli 260415Y, broth",Purple
same,colour,"E. coli 260416W, broth",Purple
same,colour,"E. coli 260417P, broth",Purple
same,colour,"E. coli 260422Y, broth",Purple
same,colour,"E. coli 260424P, broth",Purple
same,colour,"E. coli 260425A, broth",Purple
same,colour,"E. coli 260426F, broth",Purple
same,colour,"E. coli 260428T, broth",Purple
same,colour,"E. coli 260431N, broth",Purple
same,colour,"E. coli 260432E, broth",Purple
same,colour,"E. coli 260433H, broth",Purple
same,colour,"E. coli 260434Y, broth",Purple
same,colour,"E. coli 260435W, broth",Purple
same,colour,"E. coli 260436P, broth",Purple
same,colour,"E. coli 260437A, broth",—
same,colour,"E. coli 260438F, broth",Purple
same,colour,"E. coli 260439C, broth",Purple
same,colour,"E. coli 260440S, broth",Purple
same,colour,"E. coli 260441G, broth",Purple
same,colour,"E. coli 260458Y, broth",Purple
same,colour,"E. coli 260459W, broth",Purple
same,colour,"E. coli 260463D, broth",Purple
same,colour,"E. coli 260464G, broth",Purple
same,colour,"E. coli 260471B, broth",—
same,colour,"E. coli 260478N, broth",—
same,colour,"E. coli 260479Q, broth",Purple
same,colour,"E. coli 260480M, broth",Purple
same,colour,"E. coli 260481J, broth",Purple
same,colour,"E. coli 260483R, broth",—
same,colour,"E. coli 260485D, broth",Purple
same,colour,"E. coli 260486L, broth",Purple
same,colour,"E. coli 260492J, broth",Purple
same,colour,"E. coli 260494B, broth",Purple
same,colour,"E. coli 260495R, broth",Purple
same,colour,"E. coli 260497D, broth",Purple
same,colour,"E. coli 260502G, broth",Purple
same,colour,"E. coli 260503Z, broth",Purple
same,colour,"E. coli 260504N, broth",Purple
same,colour,"E. coli 260505Q, broth",—
same,colour,"E. coli 260506E, broth",Purple
same,colour,"E. coli 260508Y, broth",Purple
same,colour,"E. coli 260509W, broth",Purple
same,colour,"E. coli 260510R, broth",Purple
same,colour,"E. coli 260511X, broth",Purple
same,colour,"E. coli 260514G, broth",—
same,colour,"E. coli 260515Z, broth",Purple
same,colour,"E. coli 260521S, broth",Purple
same,colour,"E. coli 260522Z, broth",Purple
same,colour,"E. coli 260532S, broth",Purple
same,colour,"E. coli 260533G, broth",Purple
same,colour,"E. coli 260536Q, broth",Purple
same,colour,"E. coli 260537E, broth",—
same,colour,"E. coli 260538H, broth",—
same,colour,"E. coli 260539Y, broth",Purple
same,colour,"E. coli 260541R, broth",Purple
same,colour,"E. coli 260545G, broth",Purple
same,colour,"E. coli 260547N, broth",Purple
same,colour,"E. coli 260548Q, broth",Purple
same,colour,"E. coli 260549E, broth",Purple
same,colour,"E. coli 260553X, broth",—
same,colour,"E. coli 260554D, broth",Purple
same,colour,"E. coli 260555L, broth",Purple
same,colour,"E. coli 260563B, broth",Purple
same,colour,"E. coli 260564R, broth",Purple
same,colour,"E. coli 260578D, broth",—
same,colour,"E. coli 2603121P, broth",—
same,colour,"E. coli 2604399E, broth",Purple
same,colour,"E. coli O157 non-toxigenic, broth",—
same,colour of positive solutions,"broth with FAC, in words",purple solutions

# Reference: US9879303B2, “Chromogenic glucuronidase substrates and uses” (Glycosynth Limited, priority 2013, dated 2018)
